Drawing on patent US8906868B2, “Aminoglycoside derivatives” (Rempex Pharmaceuticals, Inc., priority 2010, dated 2014), this text covers MIC for one molecule.

For test [1], the system named is Pseudomonas aeruginosa (ATCC 27853). In words: MIC, broth microdilution. Conditions: Pseudomonas aeruginosa. In general terms: Broth dilution looks for growth in wells or tubes with falling amounts of substance.
The subject of test [2] is PAM3073 aac(6′)-I. In words: microbe, parasite or virus in culture. It counts as cell-based, Pseudomonas aeruginosa. Conditions: Pseudomonas aeruginosa, Table 5; read-out: Compound MIC on Bacterial Strains: Pseudomonas aeruginosa PAM3073 aac(6′)-I. The gist of the method:
(§1)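 Broth microdilution per CLSI guidelines: compounds serially diluted 2-fold in cation-adjusted Mueller Hinton broth, inoculum 5×10^5 CFU/ml from overnight colonies, 18 hours at 35° C. MIC read by turbidity at 600 nm and confirmed visually.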

In test [3] the test system is PAM3072 aac(6′)-II. Description: microbe, parasite or virus in culture. The format is cell-based, Pseudomonas aeruginosa. As to conditions: Pseudomonas aeruginosa, Table 5; read-out: Compound MIC on Bacterial Strains: Pseudomonas aeruginosa PAM3072 aac(6′)-II. The gist of the method: as §1
Test [4] deals with ECM6006 aph(3′)-III. Description: microbe, parasite or virus in culture. The format is cell-based, Escherichia coli. As to conditions: Escherichia coli, read-out: Compound MIC on Bacterial Strains: ECM6006 aph(3′)-III. The gist of the method:
(§2)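 Broth microdilution per CLSI M7-A7 in cation-adjusted Mueller Hinton broth, 2-fold serial dilutions, inoculum 5×10^5 CFU/ml from overnight colonies. Incubated 18 hours at 35° C. MIC read as turbidity at 600 nm, confirmed visually.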

In test [5] the test system is ECM6010 ant(2″)-I. Description: microbe, parasite or virus in culture. The format is cell-based, Escherichia coli. Conditions: Escherichia coli, read-out: Compound MIC on Bacterial Strains: ECM6010 ant(2″)-I. The gist of the method:
as §2

The test system of test [6] is ECM6009 aac(3)-II. Description: microbe, parasite or virus in culture. It counts as cell-based, Escherichia coli. Conditions: Escherichia coli, read-out: Compound MIC on Bacterial Strains: ECM6009 aac(3)-II. The gist of the method:
as §2

For test [7], the system named is ECM6011 aph(3′)-I. Description: microbe, parasite or virus in culture. The format is cell-based, Escherichia coli. As to conditions: Escherichia coli, read-out: Compound MIC on Bacterial Strains: ECM6011 aph(3′)-I. The gist of the method:
as §2

The test system of test [8] is Staphylococcus aureus (ATCC 29213). In words: MIC, broth microdilution. As to conditions: Staphylococcus aureus.
Test [9] has as its system ACM1006 acc(6′)-Ib. In words: microbe, parasite or virus in culture. It counts as cell-based, Acinetobacter baumannii. As to conditions: Acinetobacter baumannii; Table 4; read-out: Compound MIC on Bacterial Strains: Acinetobacter baumannii ACM1006 acc(6′)-Ib. The gist of the method:
as §1

Test [10] deals with Sa 287 aac(6′) + aph(2″). Description: microbe, parasite or virus in culture. The format is cell-based, Staphylococcus aureus. As to conditions: Staphylococcus aureus, 18 h; Table 5; read-out: Compound MIC on Bacterial Strains: Staphylococcus aureus Sa 287 aac(6′) + aph(2″). The protocol:
To compare microbiological activity of the test compounds, minimum inhibitory concentrations (MIC.s) were determined. Antibiotic MICs were obtained using the broth microdilution method according to Clinical and Laboratory Standards Institute (CLSI) approved guidelines (Methods for dilution antimicrobial susceptibility tests for bacteria that grow aerobically; approved standard—7th ed. CLSI document M7-A7. Clinical and Laboratory Standards Institute, Wayne, Pa., incorporated herein by reference in its entirety). Antibiotics were dissolved as specified by CLSI (Performance standards for antimicrobial susceptibility testing; Seventeenth informational supplement. CLSI document M100-S17. Clinical and Laboratory Standards Institute, Wayne, Pa., incorporated herein by reference in its entirety), and were serially diluted 2-fold in cation adjusted Mueller Hinton Broth (CaMHB) at 2× concentration. Bacterial inoculums were prepared in CaMHB by suspension of a colony from an agar plate that was prepared the previous day to obtain a final concentration of 5×10^5CFU/ml. The plates were incubated for 18 hours at 35° C. […] MIC.s were determined by reading the turbidity of plate wells using a SpectraMax Plus384 plate reader (Molecular Devices, Sunnyvale, Calif., USA) at 600 nm and were confirmed by visual inspection.

Test [11] deals with ACM1005 ATCC 19004. In words: MIC, broth microdilution. Conditions: Acinetobacter baumannii, ATCC19004; Table 4; read-out: Compound MIC on Bacterial Strains: Acinetobacter baumannii ACM1005 ATCC 19004. It counts as cell-based, Acinetobacter baumannii. The gist of the method: as §1
In test [12] the test system is ECM6003 rmtB. In words: microbe, parasite or virus in culture. The format is cell-based, Escherichia coli. As to conditions: Escherichia coli; Table 3; read-out: Compound MIC on Bacterial Strains: ECM6003 rmtB. The gist of the method: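 Broth microdilution per CLSI M7-A7 in cation-adjusted Mueller Hinton broth with 2-fold serial dilutions and 5×10^5 CFU/ml inoculum. Incubated 18 hours at 35 °C; MIC read by turbidity at 600 nm and confirmed visually.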

The test system of test [13] is EC1002 aph(3′)-IV. Description: organism not typed. It counts as cell-based. As to conditions: read-out: Compound MIC on Bacterial Strains: EC1002 aph(3′)-IV. The gist of the method:
as §2

The test system of test [14] is Acinetobacter baumannii (ATCC 19606). Description: MIC, broth microdilution. As to conditions: Acinetobacter baumannii, ATCC19606, read-out: Compound MIC on Bacterial Strains: A. baumannii ATCC 19606.
The subject of test [15] is Escherichia coli (ATCC 25922). In words: MIC, broth microdilution. Conditions: Escherichia coli.
Test [16] deals with Klebsiella pneumonia (ATCC 43816). In words: MIC, broth microdilution. As to conditions: Klebsiella pneumoniae, ATCC43816, read-out: Compound MIC on Bacterial Strains: K. pneumonia ATCC 43816.
The test system of test [17] is ECM6007 aac(6′) + aph(2″). In words: microbe, parasite or virus in culture. It counts as cell-based, Escherichia coli. Conditions: Escherichia coli, 18 h; Table 4; read-out: Compound MIC on Bacterial Strains: Escherichia coli ECM6007 aac(6′) + aph(2″). The gist of the method: as §1
The subject of test [18] is EC1001 acc(6′)-Ib. In words: microbe, parasite or virus in culture. As to conditions: Escherichia coli; Table 4; read-out: Compound MIC on Bacterial Strains: Escherichia coli EC1001 acc(6′)-Ib. It counts as cell-based, Escherichia coli. The gist of the method:
as §1

In brackets after ≈: the same amount, converted by molar mass. Like-named read-outs stand apart in the source and are kept apart here.

Consider `CN[C@@H]1C(O)[C@@H](OC2C(O)C(O[C@H]3O[C@H](CN)CCC3N)[C@@H](N)C[C@H]2NC(=O)[C@@H](O)[C@@H](O)CN)OCC1(C)O` (stereo partly drawn) [Compound 21, (2S,3R)-4-amino-N-((1R,2S,3S,4R,5S)-5-amino-4-((2R,3R,6S)-3-amino-6-(aminomethyl)tetrahydro-2H-pyran-2-vyloxy)-2-((2R,3R,4R,5R)-3,5-dihydroxy-5-methyl-4-(methylamino)tetrahydro-2H-pyran-2-yloxy)-3-hydroxycyclohexyl)-2,3-dihydroxybutanamide], for which the MIC in [1] (ATCC27853, read-out: Compound MIC on Bacterial Strains: P. aeruginosa ATCC 27853) was less than 1 µg/mL; in [1] (ATCC27853, read-out: Compound MIC on Bacterial Strains: Pseudomonas aeruginosa PAM3034 ATCC 27853) it was 1 to 8 µg/mL (≈ 1.76 to 14.1 µM); in [2], 1 to 8 µg/mL (≈ 1.76 to 14.1 µM); in [3], more than 8 µg/mL; in [4], 1 to 8 µg/mL (≈ 1.76 to 14.1 µM); in test [5], less than 1 µg/mL. In addition, the MIC was less than 1 µg/mL in test [6]; 1 to 8 µg/mL (≈ 1.76 to 14.1 µM) in test [7]; less than 1 µg/mL in [8] (ATCC29213, read-out: Compound MIC on Bacterial Strains: S. aureus ATCC 29213, QC strain, Table 2); less than 1 µg/mL in test [8] (ATCC29213, read-out: Compound MIC on Bacterial Strains: Staphylococcus aureus SAM1000 ATCC 29213, Table 5); 1 to 8 µg/mL (≈ 1.76 to 14.1 µM) in test [9]; 1 to 8 µg/mL in [10]. Further, the MIC in [11] was 1 to 8 µg/mL (≈ 1.76 to 14.1 µM); in [12], 1 to 8 µg/mL (≈ 1.76 to 14.1 µM); in test [13], 1 to 8 µg/mL (≈ 1.76 to 14.1 µM); in [14], more than 8 µg/mL; in test [15] (ATCC25922, read-out: Compound MIC on Bacterial Strains: E. coli ATCC 25922) it was less than 1 µg/mL; in test [15] (ATCC25922, read-out: Compound MIC on Bacterial Strains: ECM6000 ATCC 25922) it was 1 to 8 µg/mL (≈ 1.76 to 14.1 µM). Also, the MIC in [15] (ATCC25922, read-out: Compound MIC on Bacterial Strains: Escherichia coli ECM6000 ATCC 25922) was 1 to 8 µg/mL (≈ 1.76 to 14.1 µM); in test [16], less than 1 µg/mL; in test [17], less than 1 µg/mL; in test [18], more than 8 µg/mL.
